Measured values published in ChEMBL document CHEMBL4680271, “COVID-19: Drug Targets and Potential Treatments” (J Med Chem, 2020).

Assays:
[1] = Cytotoxicity against African green monkey Vero E6 cells by CCK8 assay; assay type: cell-based, Vero C1008; conditions: chlorocebus sabaeus
[2] = Inhibition of SARS-CoV2 3C-like protease expressed in Escherichia coli BL21 (DE3) cells using Mca-AVLQSGFR-K(Dnp)K as substrate by fluorescence method; parameters: species or system Severe acute respiratory syndrome coronavirus 2
[3] = Inhibition of MERS-CoV 3C-like protease expressed in Escherichia coli BL21 using Dabcyl-KTSAVLQSGFRKME-Edans fluorogenic peptide as substrate by fluorometric assay; parameters: species or system Middle East respiratory syndrome-related coronavirus
[4] = Inhibition of SARS-CoV 3C-like protease expressed in Escherichia coli BL21 using Dabcyl-KTSAVLQSGFRKME-Edans fluorogenic peptide as substrate by fluorometric assay; parameters: species or system Severe acute respiratory syndrome-related coronavirus
[5] = Inhibition of SARS-CoV2 3C-like protease expressed in Escherichia coli BL21-Gold (DE3) cells using Dabcyl-KTSAVLQSGFRKM-E(Edans)-NH2 as substrate by FRET-based cleavage assay; parameters: species or system Severe acute respiratory syndrome coronavirus 2
[6] = Inhibition of SARS-CoV 3C-like protease expressed in African green monkey Vero cells using SAVLQSGFRK as substrate by dual luciferase reporter assay; assay type: cell-based, Severe acute respiratory syndrome-related coronavirus
[7] = Inhibition of C-terminal 6His-tagged SARS-CoV 3C-like protease expressed in Escherichia coli BL21 (DE3) CodonPlus-RIL using 12-mer fluorogenic peptide Dabcyl-KNSTLQSGLRKE-Edans as substrate incubated for 60 mins by fluorescence method; parameters: species or system Severe acute respiratory syndrome-related coronavirus
[8] = Inhibition of C-terminal 6His-tagged SARS-CoV papain-like protease expressed in Escherichia coli BL21 (DE3) CodonPlus-RIL using Arg-Leu-Arg-Gly-Gly-AMC as substrate by fluorescence method; parameters: species or system Severe acute respiratory syndrome-related coronavirus

NC(=O)c1nc(F)c[nH]c1=O
CC50 [1]: > 400 µM

Cn1sc(=O)n(Cc2ccccc2)c1=O
IC50 [2]: 2.5 µM

O=C[C@H](CC1CCNC1=O)NC(=O)[C@@H](Cc1ccccc1)NC(=O)/C=C/c1ccc(Cl)cc1F (stereo not given in full)
IC50 [3]: 1.17 µM | IC50 [4]: 0.2 µM

CC(C)(C)CC(=O)Nc1cccc([C@@H](CC2CC2)C(=O)N[C@@H](CC2CCNC2=O)C(=O)C(=O)NCc2ccccc2)c1O (stereo not given in full)
IC50 [5]: 0.67 µM

COc1ccc(C(=O)/C=C/c2ccc(O)cc2)c(O)c1CC(O)C(C)=O (stereo not given)
IC50 [6]: 7.1 µM

O=C(/C=C/CCc1ccc(O)c(O)c1)CCc1ccc(O)c(O)c1 [DEHYDROHIRSUTANONOL]
IC50 [7]: 36.2 µM | IC50 [8]: 4.1 µM

Nc1nc2c(ncn2CCC(CO)CO)c(=O)[nH]1 [PENCICLOVIR]
CC50 [1]: > 400 µM

NC(=O)c1ncn([C@@H]2O[C@H](CO)[C@@H](O)[C@H]2O)n1 [RIBAVIRIN]
CC50 [1]: > 400 µM
